Experimental data reported in the kinase profiling compilation of Christmann-Franck et al. (2016).
Values belong to the compound of their own block, whether it stands above or below them.

Columns and labels:
Experiment in all cases: Caliper, Mobility shift assay off-chip
[1] = molecular target: STK11 (human) (UniProt Q15831)
[2] = molecular target: TSSK1B (human) (UniProt Q9BXA7)
[3] = molecular target: CDK6 CCND3 (human) (UniProt Q00534+P30281)
[4] = molecular target: DAPK1 (human) (UniProt P53355)
[5] = molecular target: EPHA5 (human) (UniProt P54756)
Sequence of EPHA5 (human) (P54756 whole entry, looked up): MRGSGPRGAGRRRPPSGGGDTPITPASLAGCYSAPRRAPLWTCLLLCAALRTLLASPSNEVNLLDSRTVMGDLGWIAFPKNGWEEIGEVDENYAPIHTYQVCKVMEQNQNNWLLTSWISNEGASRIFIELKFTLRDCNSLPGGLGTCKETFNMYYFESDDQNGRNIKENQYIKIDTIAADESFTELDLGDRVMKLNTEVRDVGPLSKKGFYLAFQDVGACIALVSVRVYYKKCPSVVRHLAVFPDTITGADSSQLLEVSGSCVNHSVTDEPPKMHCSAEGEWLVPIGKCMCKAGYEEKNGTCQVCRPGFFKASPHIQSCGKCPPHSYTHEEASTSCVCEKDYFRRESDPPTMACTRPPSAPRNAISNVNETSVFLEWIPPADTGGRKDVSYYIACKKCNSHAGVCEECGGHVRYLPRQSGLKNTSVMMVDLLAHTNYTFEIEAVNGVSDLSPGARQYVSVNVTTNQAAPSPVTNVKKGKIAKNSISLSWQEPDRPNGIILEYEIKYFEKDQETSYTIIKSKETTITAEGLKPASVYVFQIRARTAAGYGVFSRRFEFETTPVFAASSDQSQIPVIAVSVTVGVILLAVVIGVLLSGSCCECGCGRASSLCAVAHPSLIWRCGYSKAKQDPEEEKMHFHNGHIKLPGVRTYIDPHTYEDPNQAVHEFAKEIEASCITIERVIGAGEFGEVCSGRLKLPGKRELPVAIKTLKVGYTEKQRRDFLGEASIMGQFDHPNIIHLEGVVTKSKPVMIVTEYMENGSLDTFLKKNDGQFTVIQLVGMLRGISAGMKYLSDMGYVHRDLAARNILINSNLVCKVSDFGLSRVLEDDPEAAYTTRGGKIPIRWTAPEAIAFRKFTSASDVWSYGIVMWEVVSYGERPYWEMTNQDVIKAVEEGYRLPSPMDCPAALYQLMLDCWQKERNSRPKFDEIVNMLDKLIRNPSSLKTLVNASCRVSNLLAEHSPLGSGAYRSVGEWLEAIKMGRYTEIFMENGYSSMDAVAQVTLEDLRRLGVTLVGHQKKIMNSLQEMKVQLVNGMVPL

[6] = molecular target: MYLK3 (human) (UniProt Q32MK0)
[7] = molecular target: NEK7 (human) (UniProt Q8TDX7)
[8] = molecular target: PHKG2 (human) (UniProt P15735)
[9] = molecular target: ERBB4 (human) (UniProt Q15303)
Sequence of ERBB4 (human) (Q15303 whole entry, looked up): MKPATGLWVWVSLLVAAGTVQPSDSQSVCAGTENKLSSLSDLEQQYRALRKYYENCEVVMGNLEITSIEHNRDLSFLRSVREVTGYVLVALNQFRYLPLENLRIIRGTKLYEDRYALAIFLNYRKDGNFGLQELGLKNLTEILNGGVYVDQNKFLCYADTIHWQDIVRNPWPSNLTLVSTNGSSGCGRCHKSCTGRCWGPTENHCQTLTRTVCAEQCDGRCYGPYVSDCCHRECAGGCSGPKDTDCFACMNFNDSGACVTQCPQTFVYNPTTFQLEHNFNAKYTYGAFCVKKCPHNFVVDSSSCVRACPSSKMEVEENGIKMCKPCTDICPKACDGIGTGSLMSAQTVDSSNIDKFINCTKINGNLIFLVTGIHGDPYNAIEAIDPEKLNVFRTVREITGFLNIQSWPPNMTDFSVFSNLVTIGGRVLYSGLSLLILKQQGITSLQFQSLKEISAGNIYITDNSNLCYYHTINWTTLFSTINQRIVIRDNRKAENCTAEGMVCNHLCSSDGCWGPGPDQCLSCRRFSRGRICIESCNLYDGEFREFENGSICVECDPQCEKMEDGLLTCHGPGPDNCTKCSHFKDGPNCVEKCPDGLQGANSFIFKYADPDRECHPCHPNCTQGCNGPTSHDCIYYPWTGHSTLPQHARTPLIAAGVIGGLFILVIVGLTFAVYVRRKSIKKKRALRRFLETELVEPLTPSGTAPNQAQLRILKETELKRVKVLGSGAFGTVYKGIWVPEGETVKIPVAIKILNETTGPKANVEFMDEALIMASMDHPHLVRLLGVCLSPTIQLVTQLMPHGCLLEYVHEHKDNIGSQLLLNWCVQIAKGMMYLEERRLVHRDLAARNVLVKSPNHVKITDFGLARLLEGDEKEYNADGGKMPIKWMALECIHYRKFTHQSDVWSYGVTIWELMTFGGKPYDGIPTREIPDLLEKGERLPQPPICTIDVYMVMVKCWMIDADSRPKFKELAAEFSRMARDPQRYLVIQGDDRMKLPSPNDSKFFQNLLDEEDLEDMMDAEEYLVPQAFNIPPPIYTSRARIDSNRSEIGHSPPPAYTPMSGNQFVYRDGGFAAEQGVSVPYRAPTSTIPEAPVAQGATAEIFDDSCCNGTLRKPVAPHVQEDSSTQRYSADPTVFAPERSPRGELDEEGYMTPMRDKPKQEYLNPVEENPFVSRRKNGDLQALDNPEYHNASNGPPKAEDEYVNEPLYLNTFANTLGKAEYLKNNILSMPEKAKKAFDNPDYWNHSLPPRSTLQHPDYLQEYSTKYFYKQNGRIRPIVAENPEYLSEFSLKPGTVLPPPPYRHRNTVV

[10] = molecular target: MAPK1 (human) (UniProt P28482)
Sequence of MAPK1 (human) (P28482 whole entry, looked up): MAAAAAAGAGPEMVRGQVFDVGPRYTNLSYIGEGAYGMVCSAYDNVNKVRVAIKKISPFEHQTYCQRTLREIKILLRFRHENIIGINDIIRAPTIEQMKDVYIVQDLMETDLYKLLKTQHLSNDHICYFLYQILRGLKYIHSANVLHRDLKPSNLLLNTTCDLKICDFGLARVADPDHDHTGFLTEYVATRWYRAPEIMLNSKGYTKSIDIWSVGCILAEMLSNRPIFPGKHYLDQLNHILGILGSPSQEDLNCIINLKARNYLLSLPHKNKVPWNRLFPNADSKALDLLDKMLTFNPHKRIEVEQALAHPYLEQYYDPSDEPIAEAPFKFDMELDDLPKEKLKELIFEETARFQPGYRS

[11] = molecular target: PDGFRB (human) (UniProt P09619)
[12] = system: CHEK2 (human), O96017 [I157T]
Sequence of CHEK2 (human), O96017 [I157T] (O96017 whole entry I157T, looked up): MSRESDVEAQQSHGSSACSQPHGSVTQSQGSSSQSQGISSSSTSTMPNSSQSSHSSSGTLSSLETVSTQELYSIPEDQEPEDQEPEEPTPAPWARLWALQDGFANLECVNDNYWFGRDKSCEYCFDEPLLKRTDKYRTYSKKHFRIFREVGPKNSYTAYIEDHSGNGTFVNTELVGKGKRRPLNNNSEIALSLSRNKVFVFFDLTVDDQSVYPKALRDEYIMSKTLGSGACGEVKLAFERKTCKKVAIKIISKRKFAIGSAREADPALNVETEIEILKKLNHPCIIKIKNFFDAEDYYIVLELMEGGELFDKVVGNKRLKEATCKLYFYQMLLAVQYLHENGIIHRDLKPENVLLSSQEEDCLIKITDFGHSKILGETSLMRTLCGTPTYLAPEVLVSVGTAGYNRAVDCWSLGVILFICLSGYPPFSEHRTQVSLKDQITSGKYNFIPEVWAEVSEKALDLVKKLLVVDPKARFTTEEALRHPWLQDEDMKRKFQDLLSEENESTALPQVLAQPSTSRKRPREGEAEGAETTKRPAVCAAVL

[13] = molecular target: RPS6KA2 KD1 KD2 (human) (UniProt Q15349)
[14] = molecular target: EPHB1 (human) (UniProt P54762)
[15] = molecular target: PIM3 (human) (UniProt Q86V86)
[16] = molecular target: FGFR4 (human) (UniProt P22455)
[17] = molecular target: ROS1 (human) (UniProt P08922)
[18] = molecular target: ITK (human) (UniProt Q08881)
[19] = molecular target: PRKG1 (human) (UniProt Q13976)
[20] = system: MAPK14 (human), Q16539 [T106M]
[21] = molecular target: MST1R (human) (UniProt Q04912)
Sequence of MST1R (human) (Q04912 whole entry, looked up): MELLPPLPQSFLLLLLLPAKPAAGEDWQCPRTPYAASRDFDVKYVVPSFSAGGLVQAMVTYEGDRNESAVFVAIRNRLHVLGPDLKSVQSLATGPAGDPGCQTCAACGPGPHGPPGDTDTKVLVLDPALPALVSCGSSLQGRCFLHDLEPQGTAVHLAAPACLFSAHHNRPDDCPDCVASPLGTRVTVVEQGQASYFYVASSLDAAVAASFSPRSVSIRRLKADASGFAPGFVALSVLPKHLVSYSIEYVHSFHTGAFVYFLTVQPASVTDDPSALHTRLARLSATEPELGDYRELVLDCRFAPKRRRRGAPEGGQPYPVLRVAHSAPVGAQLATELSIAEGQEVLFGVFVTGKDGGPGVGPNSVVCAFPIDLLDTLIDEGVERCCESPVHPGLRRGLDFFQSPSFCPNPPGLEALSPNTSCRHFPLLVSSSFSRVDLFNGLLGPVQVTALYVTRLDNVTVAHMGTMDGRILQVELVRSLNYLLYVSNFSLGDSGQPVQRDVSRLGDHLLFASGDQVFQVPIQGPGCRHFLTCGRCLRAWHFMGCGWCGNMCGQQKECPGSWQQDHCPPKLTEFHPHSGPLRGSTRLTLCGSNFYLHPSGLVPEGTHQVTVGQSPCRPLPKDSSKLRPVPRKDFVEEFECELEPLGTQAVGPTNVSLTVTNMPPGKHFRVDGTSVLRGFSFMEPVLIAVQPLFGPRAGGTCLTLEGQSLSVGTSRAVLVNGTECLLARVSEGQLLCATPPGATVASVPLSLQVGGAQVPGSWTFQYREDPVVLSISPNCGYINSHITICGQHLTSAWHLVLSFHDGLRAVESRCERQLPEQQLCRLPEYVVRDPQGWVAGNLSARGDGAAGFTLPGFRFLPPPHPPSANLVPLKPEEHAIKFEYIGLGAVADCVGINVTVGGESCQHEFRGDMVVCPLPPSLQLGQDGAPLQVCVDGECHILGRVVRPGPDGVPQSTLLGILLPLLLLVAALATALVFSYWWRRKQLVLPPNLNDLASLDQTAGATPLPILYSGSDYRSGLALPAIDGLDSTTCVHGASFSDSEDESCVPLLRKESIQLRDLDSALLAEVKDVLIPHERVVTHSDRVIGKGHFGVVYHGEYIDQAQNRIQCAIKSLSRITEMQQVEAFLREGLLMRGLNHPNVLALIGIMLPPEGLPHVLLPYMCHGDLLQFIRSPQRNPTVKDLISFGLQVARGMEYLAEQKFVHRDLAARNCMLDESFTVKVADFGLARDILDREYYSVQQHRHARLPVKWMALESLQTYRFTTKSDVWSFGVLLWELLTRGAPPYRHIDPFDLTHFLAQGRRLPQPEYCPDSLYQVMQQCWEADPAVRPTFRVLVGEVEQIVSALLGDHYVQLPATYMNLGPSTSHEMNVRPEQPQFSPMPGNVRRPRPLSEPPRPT

[22] = molecular target: BMX (human) (UniProt P51813)
[23] = molecular target: HIPK3 (human) (UniProt Q9H422)
[24] = system: RPS6KA1 KD1 KD2 (rat); details: accession and sequence are those of the human protein
[25] = system: ROCK2 (rat); details: accession and sequence are those of the human protein
[26] = molecular target: TAOK1 (human) (UniProt Q7L7X3)
[27] = system: TEK (human), Q02763 [Y897S]
[28] = system: ABL1 (human), P00519 [H396P]
[29] = molecular target: GRK7 (human) (UniProt Q8WTQ7)
[30] = molecular target: ULK2 (human) (UniProt Q8IYT8)
[31] = molecular target: PLK1 (human) (UniProt P53350)
[32] = system: RET (human), P07949 [V804M]
[33] = system: ABL1 (human), P00519 [Q252H]
[34] = molecular target: MTOR FKBP1A (human) (UniProt P42345+P62942)
[35] = system: SRC (human), P12931 [T341M]
[36] = system: BTK (human), Q06187 [R28H]
[37] = molecular target: ULK3 (human) (UniProt Q6PHR2)
[38] = system: ABL1 (human), P00519 [Y253F]
[39] = system: RET (human), P07949 [V804L]
[40] = system: TEK (human), Q02763 [R849W]
[41] = system: BLK (mouse); details: accession and sequence are those of the human protein

residual activity ([1]; compound 10.0 µM): 104% | residual activity ([2]; compound 10.0 µM): 99% | residual activity ([3]; compound 10.0 µM): 103% | residual activity ([4]; compound 10.0 µM): 50% | residual activity ([5]; compound 10.0 µM): 90% | residual activity ([6]; compound 10.0 µM): 29% | residual activity ([7]; compound 10.0 µM): 121% | residual activity ([8]; compound 10.0 µM): 33% | residual activity ([9]; compound 10.0 µM): 116% | residual activity ([10]; compound 10.0 µM): 133% | residual activity ([11]; compound 10.0 µM): 77% | residual activity ([12]; compound 10.0 µM): 6% | residual activity ([13]; compound 10.0 µM): 8% | residual activity ([14]; compound 10.0 µM): 110% | residual activity ([15]; compound 10.0 µM): 22% | residual activity ([16]; compound 10.0 µM): 44% | residual activity ([17]; compound 10.0 µM): 54% | residual activity ([18]; compound 10.0 µM): 78% | residual activity ([19]; compound 10.0 µM): 29% | residual activity ([20]; compound 10.0 µM): 79% | residual activity ([21]; compound 10.0 µM): 106% | residual activity ([22]; compound 10.0 µM): 25% | residual activity ([23]; compound 10.0 µM): 90%
SMILES: COc1ccc(C#Cc2ccc3ncc4ncn(-c5ccc(CCN)cc5)c4c3c2)cc1

residual activity ([24]; compound 10.0 µM): 10% | residual activity ([10]; compound 10.0 µM): 33% | residual activity ([25]; compound 10.0 µM): 21%
SMILES: CC(C)(C)c1nc2c3ccc(F)cc3c3c(=O)[nH]ccc3c2[nH]1

residual activity ([26]; compound 1.0 µM): 95% | residual activity ([1]; compound 1.0 µM): 96% | residual activity ([2]; compound 1.0 µM): 75% | residual activity ([3]; compound 1.0 µM): 102% | residual activity ([27]; compound 1.0 µM): 82% | residual activity ([4]; compound 1.0 µM): 82% | residual activity ([5]; compound 1.0 µM): 109% | residual activity ([6]; compound 1.0 µM): 53% | residual activity ([7]; compound 1.0 µM): 111% | residual activity ([8]; compound 1.0 µM): 76% | residual activity ([9]; compound 1.0 µM): 102% | residual activity ([10]; compound 1.0 µM): 99% | residual activity ([28]; compound 1.0 µM): 49% | residual activity ([11]; compound 1.0 µM): 102% | residual activity ([12]; compound 1.0 µM): 9% | residual activity ([29]; compound 1.0 µM): 90% | residual activity ([30]; compound 1.0 µM): 30% | residual activity ([31]; compound 1.0 µM): 81% | residual activity ([32]; compound 1.0 µM): 13% | residual activity ([33]; compound 1.0 µM): 54% | residual activity ([34]; compound 1.0 µM): 94% | residual activity ([13]; compound 1.0 µM): 7% | residual activity ([14]; compound 1.0 µM): 104% | residual activity ([15]; compound 1.0 µM): 96% | residual activity ([16]; compound 1.0 µM): 105% | residual activity ([17]; compound 1.0 µM): 98% | residual activity ([35]; compound 1.0 µM): 55% | residual activity ([36]; compound 1.0 µM): 100% | residual activity ([18]; compound 1.0 µM): 113% | residual activity ([37]; compound 1.0 µM): 47% | residual activity ([38]; compound 1.0 µM): 60% | residual activity ([39]; compound 1.0 µM): 2% | residual activity ([19]; compound 1.0 µM): 97% | residual activity ([40]; compound 1.0 µM): 74% | residual activity ([20]; compound 1.0 µM): 103% | residual activity ([21]; compound 1.0 µM): 98% | residual activity ([22]; compound 1.0 µM): 89% | residual activity ([23]; compound 1.0 µM): 104%
SMILES: C[C@@H](Nc1nc2c(C#CC3CC3)c[nH]c(=O)c2c2cc(-c3cn[nH]c3)ccc12)C(C)(C)C

residual activity ([1]; compound 1.0 µM): 108% | residual activity ([2]; compound 1.0 µM): 99% | residual activity ([3]; compound 1.0 µM): 86% | residual activity ([4]; compound 1.0 µM): 91% | residual activity ([5]; compound 1.0 µM): 89% | residual activity ([6]; compound 1.0 µM): 107% | residual activity ([7]; compound 1.0 µM): 109% | residual activity ([8]; compound 1.0 µM): 74% | residual activity ([9]; compound 1.0 µM): 127% | residual activity ([10]; compound 1.0 µM): 104% | residual activity ([11]; compound 1.0 µM): 97% | residual activity ([12]; compound 1.0 µM): 71% | residual activity ([13]; compound 1.0 µM): 120% | residual activity ([14]; compound 1.0 µM): 101% | residual activity ([15]; compound 1.0 µM): 116% | residual activity ([16]; compound 1.0 µM): 113% | residual activity ([17]; compound 1.0 µM): 117% | residual activity ([18]; compound 1.0 µM): 85% | residual activity ([19]; compound 1.0 µM): 107% | residual activity ([20]; compound 1.0 µM): 95% | residual activity ([21]; compound 1.0 µM): 105% | residual activity ([22]; compound 1.0 µM): 94% | residual activity ([23]; compound 1.0 µM): 107%
SMILES: O=C(NCCCNc1nc(Nc2cccc(NC(=O)N3CCCC3)c2)ncc1I)c1cccs1

residual activity ([1]; compound 1.0 µM): 104% | residual activity ([2]; compound 1.0 µM): 24% | residual activity ([3]; compound 1.0 µM): 106% | residual activity ([24]; compound 1.0 µM): 6% | residual activity ([5]; compound 1.0 µM): 94% | residual activity ([7]; compound 1.0 µM): 105% | residual activity ([9]; compound 1.0 µM): 103% | residual activity ([11]; compound 1.0 µM): 108% | residual activity ([25]; compound 1.0 µM): 88% | residual activity ([13]; compound 1.0 µM): 2% | residual activity ([16]; compound 1.0 µM): 99% | residual activity ([17]; compound 1.0 µM): 95% | residual activity ([18]; compound 1.0 µM): 127% | residual activity ([41]; compound 1.0 µM): 92% | residual activity ([19]; compound 1.0 µM): 95% | residual activity ([21]; compound 1.0 µM): 107% | residual activity ([22]; compound 1.0 µM): 94%
SMILES: Cc1n[nH]c2c1c(=O)n(CCCN)c1ccc(Cl)cc21

SMILES: O=C(N[C@@H](COc1ccc2[nH]c(=O)[nH]c2c1)c1ccccc1)c1cccn(Cc2ccc(F)c(F)c2)c1=O
residual activity ([26]; compound 10.0 µM): 96% | residual activity ([1]; compound 10.0 µM): 111% | residual activity ([2]; compound 10.0 µM): 100% | residual activity ([3]; compound 10.0 µM): 102% | residual activity ([27]; compound 10.0 µM): 111% | residual activity ([4]; compound 10.0 µM): 113% | residual activity ([5]; compound 10.0 µM): 99% | residual activity ([6]; compound 10.0 µM): 110% | residual activity ([7]; compound 10.0 µM): 102% | residual activity ([8]; compound 10.0 µM): 101% | residual activity ([9]; compound 10.0 µM): 120% | residual activity ([10]; compound 10.0 µM): 89% | residual activity ([28]; compound 10.0 µM): 114% | residual activity ([11]; compound 10.0 µM): 113% | residual activity ([12]; compound 10.0 µM): 90% | residual activity ([29]; compound 10.0 µM): 108% | residual activity ([30]; compound 10.0 µM): 110% | residual activity ([31]; compound 10.0 µM): 116% | residual activity ([32]; compound 10.0 µM): 109% | residual activity ([33]; compound 10.0 µM): 69% | residual activity ([34]; compound 10.0 µM): 103% | residual activity ([13]; compound 10.0 µM): 102% | residual activity ([14]; compound 10.0 µM): 104% | residual activity ([15]; compound 10.0 µM): 97% | residual activity ([16]; compound 10.0 µM): 108% | residual activity ([17]; compound 10.0 µM): 111% | residual activity ([35]; compound 10.0 µM): 102% | residual activity ([36]; compound 10.0 µM): 106% | residual activity ([18]; compound 10.0 µM): 108% | residual activity ([37]; compound 10.0 µM): 99% | residual activity ([38]; compound 10.0 µM): 110% | residual activity ([39]; compound 10.0 µM): 112% | residual activity ([41]; compound 10.0 µM): 94% | residual activity ([19]; compound 10.0 µM): 111% | residual activity ([40]; compound 10.0 µM): 104% | residual activity ([20]; compound 10.0 µM): 113% | residual activity ([21]; compound 10.0 µM): 82% | residual activity ([22]; compound 10.0 µM): 139% | residual activity ([23]; compound 10.0 µM): 110%
